The text below walks through data of patent publication US7273863B1, “Benzophenones as inhibitors of reverse transcriptase” (SmithKline Beecham Corporation, priority 1999, dated 2007).

The assay has as its system HIV-2. The experiment in a line: MT4 cell assay, antiviral HIV activity (propidium iodide). The assay is classed as cell-based. To be noted: Human immunodeficiency virus 2, Virus Type HIV-2, read-out: IC50 (nM) Range.

Structures are written as SMILES.

The term IC50 denotes the concentration that gives 50% inhibition. In the case of `Cc1cc(S(N)(=O)=O)ccc1NC(=O)COc1ccc(Cl)cc1C(=O)c1cc(F)cc(F)c1` [Compound 62], the IC50 was in the range of 1000 to 3000 nM. As for `Cc1cc(S(N)(=O)=O)ccc1NC(=O)COc1ccc(Cl)cc1C(=O)c1cccc(C#N)c1` [Compound 448], the half-maximal inhibitory concentration (IC50) is 1000 to 3000 nM.
